Results on five compounds are retold here after PMC10127203, “Trapoxin A Analogue as a Selective Nanomolar Inhibitor of HDAC11” (ACS Chemical Biology, 2023).

SMILES strings stand for the structures.

Test [1] concerns the target T1, HDAC11 (Homo sapiens, UniProt Q96DB2).
T1 sequence (Q96DB2 1-347): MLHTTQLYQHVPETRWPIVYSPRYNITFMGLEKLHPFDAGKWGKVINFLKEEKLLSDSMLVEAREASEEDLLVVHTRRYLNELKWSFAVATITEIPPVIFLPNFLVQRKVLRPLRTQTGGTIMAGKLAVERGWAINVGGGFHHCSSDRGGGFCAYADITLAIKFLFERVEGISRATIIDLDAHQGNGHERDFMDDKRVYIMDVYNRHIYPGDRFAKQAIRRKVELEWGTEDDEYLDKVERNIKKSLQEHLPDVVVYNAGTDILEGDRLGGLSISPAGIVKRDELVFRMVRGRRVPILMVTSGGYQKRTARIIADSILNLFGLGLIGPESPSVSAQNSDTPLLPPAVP
More on the design: method as in PMID 31264832. To be noted: cited from earlier work.

Test [2] deals with T1, HDAC11. As to the kind of experiment: HDAC11 in cell assay: defatty acylation of SHMT2 (Alk14 labeling, Western blot). More on the design: endogenous in cells; host or cells: HEK293T. To be noted: HEK293T cells, 20 μM, 3 h, 50 μM Alk14. The test is classed as cell-based.
Experimental: We treated HEK293T cells with an alkyne-tagged myristic acid analog, Alk14, along with the inhibitors (TD034, SIS17, or FT895) for 3 h. Click chemistry was performed on cell lysate with Biotin-azide, followed by Streptavidin pulldown. […] HEK293T in a six-well plate at 80% confluency was treated with 50 μM Alk14 and inhibitors at various concentrations. The cells were incubated for 3 h. The cells were harvested and lysed in 200 μL of 4% SDS lysis buffer (50 mM triethanolamine, 150 mM NaCl, 4% SDS, pH 7.4) with a 1:100 protease inhibitor cocktail and 1:1000 nuclease for 15 min. The cell lysates were then diluted with 3.8 mL of HEPES buffer (50 mM HEPES, 150 mM NaCl, 1% NP-40, pH 7.4), and then concentrated using Amicon Ultra-4 (30 kDa cutoff) for 45 min at 4000g. The retained samples were then diluted to 0.5 mL with HEPES buffer, followed by the addition of Biotin-N3 (5 μL, 5 mM in DMF), TBTA (5 μL, 2 mM in DMF), CuSO4 (5 μL, 50 mM in water), and TCEP (5 μL, 50 mM in water). The samples were shaken at 37 °C for 1 h, then diluted with 3 mL of HEPES buffer, and concentrated again using Amicon Ultra-4 (30 kDa cutoff) for 45 min at 4000g. The retained samples were then diluted to 0.5 mL with HEPES buffer, followed by the addition of 20 μg of magnetic streptavidin beads (prewashed with the HEPES buffer). […] The eluants were further analyzed by SDS-PAGE and Western blot for SHMT2.
Test [3] has as its system YAP1 protein level in A549 cells. Put plainly: YAP1 protein level by Western blot in A549 cells. The test is classed as cell-based. To be noted: A549 cells, 5 and 10 μM, 24 hr. The method, then:
(§1) A549 cells were treated with TD034 at 5 and 10 μM for 24 hr. Western blot was used to check for YAP1 protein level. qRT-PCR was used to check for YAP1 downstream genes transcription (CTGF and CYR61). Total RNA was extracted using IBI Isolate Total Extraction Reagent Kit (IB47602). […] of RNA was reverse transcribed using OneScript Plus cDNA Synthesis Kit (ABM G236) according to the manufacturer’s protocol. Real-time PCR was performed using BlasTaq 2X qPCR MasterMix (ABM G892) on a QuantStudio 3 Real-Time PCR System. All qPCR reactions were performed in triplicates. The list of primers is included in the Supporting Information.
(Immunoblotting shows a protein as a band on a membrane.)

Test [4] relates to YAP1 target genes CTGF and CYR61 in A549 cells. Put plainly: mRNA level of YAP1 and YAP1 target genes (CTGF, CYR61) by qRT-PCR in A549 cells. The test is classed as cell-based. To be noted: 5 and 10 μM, 24 hr. The method, then: as §1
A general note: In qPCR the cycle at which signal appears reflects the starting amount.

Test [5] addresses T1, HDAC11. As to the kind of experiment: HDAC11 enzyme activity assay (Myr-H3K9 peptide, HPLC). More on the design: made in house. The test is classed as biochemical. The method, then:
All quantified measurements were performed in triplicates. Data processing was performed using Graphpad Prism 9.5.0. Repeated measures of one-way ANOVA with Fisher’s LSD test were used to determine the P value. The dose–response data was fitted using a two-step nonlinear regression of the Morrison equation. […] HDACs and SIRTs were expressed and purified as previously described.[13] […] For HDAC1, 6, 8, and SIRT1-2, Ac-H3K9 was used as a substrate. […] The reaction was conducted for 15 min (HDAC11), 30 min (HDAC1, 4, 6, 8), and 5 min (SIRT1-2). Then, 20 μL of 0.2% TFA/acetonitrile was added to quench the reaction. The samples were analyzed by HPLC using a Chromolith HighResolution RP-18 end-capped 100 mm × 4.6 mm column (EMD Millipore). Mobile phase A was 0.1% TFA in water and mobile phase B was 0.1% TFA in acetonitrile. The total flow rate was 1 mL/min, and the gradient was 0% B (2 min), 0–60% B (7 min), 100% B (4 min), and 0% B (2 min). The relative ratio of product/substrate in each sample was compared to control sample (no inhibitor) to determine the inhibition level.

In test [6] the test system is α-tubulin, p53, and histone H3 acetylation levels. As to the kind of experiment: Acetylation levels of α-tubulin, p53 and histone H3 by Western blot in cells. Format: cell-based. To be noted: 3 h of treatment. The source says:
. As a positive control, we used trichostatin A (TSA), a nonselective HDAC inhibitor against both class I and class IIb HDACs.[25] […]

Consider `O=C(CCCCCCC(=O)Nc1ccccc1)NO` [SAHA], for which, at HDAC11 [1], the “inhibition of HDAC11 demyristoylation activity in vitro” value was “cannot efficiently inhibit”. With `CCCCCCCCCCCCCCCCNNC(=O)c1cccs1` [SIS17], the “inhibition of HDAC11 demyristoylation activity in vitro” value on HDAC11 [1] is listed as “low micromolar inhibition”. Besides, the “fatty acylation level of SHMT2” value at HDAC11 [2] is on record as “same effect”. With `CCCCCCCCCCC[C@@H]1O[C@H]1C(=O)CCCCC[C@@H]1NC(=O)[C@H]2CCCCN2C(=O)[C@H](Cc2ccccc2)NC(=O)[C@H](Cc2ccccc2)NC1=O` [TD034-(R)], in test [3], the YAP1 protein levels entry is reported as “did not observe such an effect”. For the same compound, the “mRNA levels of YAP1 target genes CTGF and CYR61” value in test [4] is “did not observe such an effect”. As for `CCCCCCCCCCC1(C(=O)CCCCC[C@@H]2NC(=O)[C@H]3CCCCN3C(=O)[C@H](Cc3ccccc3)NC(=O)[C@H](Cc3ccccc3)NC2=O)CO1` (some centres unmarked) [TD036], at HDAC11 [5], the “HDAC11 inhibition (in words)” value is “abolished HDAC11 inhibition”. With `CC(/C=C/C(=O)NO)=C\[C@@H](C)C(=O)c1ccc(N(C)C)cc1` [TSA, trichostatin A, reference compound], in test [6], the “level of acetylated α-tubulin (HDAC6 and SIRT2 target)” value was “elevated level”; the “levels of acetylated histone H3 and acetylated p53 (class I HDACs and SIRT1 target)” value is recorded as “increased levels”.
